Publication PMC6753678, “Fueling Open Innovation for Malaria Transmission-Blocking Drugs: Hundreds of Molecules Targeting Early Parasite Mosquito Stages” (Frontiers in Microbiology, 2019)

Key:
[1] = system: P. falciparum female gametocytes; parameters: method as in Miguel-Blanco et al 2017; conditions: TCAMS library screen; ref Miguel-Blanco et al 2017; read-out: Pf FGAA IC50; cited from earlier work
HepG2 cells = conditions: HepG2 value reported with Pf FGAA screen; ref Miguel-Blanco et al 2017; cited from earlier work
[2] = system: P. falciparum female gametocytes; assay: P. falciparum female gametogenesis assay (Pf FGAA); conditions: 1: YES; 0: NO

Row | Compound | IC50 [1] | HepG2 cytoxicity (Pf FGAA screen) (HepG2 cells) | Is compound selective in assay? Pf FGAA active? [2]
1 | O=C(O)C(F)(F)F.O=S(=O)(NCCN1CCCC1)c1ccc(-c2cccc(CNC3Cc4ccccc4C3)c2)s1 [TCMDC-132217] | 1290 nM | 5.50 µM | 0 (0: NO)
2 | CN1CCC(NCc2cccc(-c3ccc(S(=O)(=O)NCc4ccccc4)c(F)c3)c2)CC1.O=C(O)C(F)(F)F [TCMDC-132219] | 2630 nM | 5.13 µM | 0 (0: NO)
3 | O=C(O)C(F)(F)F.O=S(=O)(NCCN1CCCC1)c1ccc(-c2ccc(CNC3Cc4ccccc4C3)cc2)s1 [TCMDC-132234] | 2270 nM | 5.83 µM | 0 (0: NO)
4 | Cc1cc(-c2ccc(CNC3Cc4ccccc4C3)cc2)ccc1S(=O)(=O)NCCN1CCCC1.O=C(O)C(F)(F)F [TCMDC-132243] | 1830 nM | 5.31 µM | 0 (0: NO)
5 | COc1ccc(CNC2CCN(C)CC2)cc1-c1ccc(S(=O)(=O)NCc2ccccc2)s1.O=C(O)C(F)(F)F [TCMDC-132253] | 1750 nM | 5.50 µM | 0 (0: NO)
6 | COc1ccc(CNC2Cc3ccccc3C2)cc1-c1ccc(S(=O)(=O)NCCN2CCCC2)s1.O=C(O)C(F)(F)F [TCMDC-132258] | 1390 nM | 5.31 µM | 0 (0: NO)
7 | COc1ccc(CNC2Cc3ccccc3C2)cc1-c1ccc(S(=O)(=O)NCCN2CCCC2)c(F)c1.O=C(O)C(F)(F)F [TCMDC-132266] | 1950 nM | 6.03 µM | 0 (0: NO)
8 | Cl.N[C@@H](CCNC1CCN(c2cccc(C(F)(F)F)c2)CC1)Cc1ccc(F)c(F)c1 [TCMDC-132301] | 440 nM | 3.76 µM | 0 (0: NO)
9 | Cc1ccc(Cn2nc(N3CCNCC3)ccc2=O)cc1NC(=O)Nc1ccc(-c2ccccc2)cc1.O=C(O)C(F)(F)F [TCMDC-132580] | 1940 nM | 7.42 µM | 0 (0: NO)
10 | O=S(=O)(Nc1cccc(F)c1CNCc1ccccn1)c1ccc(Cl)c(Cl)c1 [TCMDC-132598] | 1360 nM | 20.42 µM | 1 (1: YES)
11 | Cc1cccc2nc(-c3ccc(-c4ccc(CNCc5ccc(CN)cc5)cc4)cc3)[nH]c12.O=C(O)C(F)(F)F [TCMDC-132813] | 2160 nM | 18.09 µM | 0 (0: NO)
12 | NCc1ccc(CNCc2ccc(-c3ccc(-c4nc5cc(C(F)(F)F)ccc5[nH]4)s3)cc2)cc1.O=C(O)C(F)(F)F [TCMDC-132814] | 1020 nM | 8.32 µM | 0 (0: NO)
13 | CNCCNCc1ccc(-c2ccc(-c3nc4cc(C(F)(F)F)ccc4[nH]3)s2)cc1.O=C(O)C(F)(F)F [TCMDC-132838] | 1280 nM | 6.10 µM | 0 (0: NO)
14 | FC(F)(F)c1ccc2[nH]c(-c3ccc(-c4ccc(CNCCN5CCNCC5)cc4)cc3)nc2c1.O=C(O)C(F)(F)F [TCMDC-132865] | 1410 nM | 16.43 µM | 1 (1: YES)
15 | Cc1cccc2nc(-c3ccc(-c4ccc(CNCCN5CCNCC5)cc4)s3)[nH]c12.O=C(O)C(F)(F)F [TCMDC-132870] | 1530 nM | 14.29 µM | 0 (0: NO)
16 | FC(F)(F)c1ccc2[nH]c(-c3cccc(-c4cccc(CNCCN5CCNCC5)c4)c3)nc2c1.O=C(O)C(F)(F)F [TCMDC-132871] | 1220 nM | 6.61 µM | 0 (0: NO)
17 | CCCN(CC1CC1)c1ncc(-c2cccc(CNCCC3CCCN3C)c2)cn1 (stereo not drawn) [TCMDC-133142] | 2180 nM | 3.09 µM | 0 (0: NO)
18 | CN(CCc1ccccc1)c1ncc(-c2cccc(CNCCC3CCCN3C)c2)cn1 (stereo not drawn) [TCMDC-133143] | 1360 nM | 2.88 µM | 0 (0: NO)
19 | CN1CCCC1CCNCc1cccc(-c2cnc(N3CCCC(C)(C)C3)nc2)c1 (stereo not drawn) [TCMDC-133144] | 1670 nM | 4.63 µM | 0 (0: NO)
20 | O=C(Nc1cccc(-c2cccc(-c3nc4cc(C(F)(F)F)ccc4[nH]3)c2)c1)Nc1ccc(F)c(F)c1F [TCMDC-133229] | 1400 nM | 3.43 µM | 0 (0: NO)
21 | COc1ccccc1C1CCN(C2CCC(NC(=O)c3ccc4[nH]c(-c5ccc(C)cc5)nc4c3)CC2)CC1 (stereo not drawn) [TCMDC-133556] | 2490 nM | 3.99 µM | 0 (0: NO)

Row | Compound | IC50 [1] | HepG2 cytoxicity (Pf FGAA screen) (HepG2 cells) | Is compound selective in assay? Pf FGAA active? [2]
22 | CN1CCC(N2CCN(Cc3cccc(-c4ccc(-c5nc6cc(C(F)(F)F)ccc6[nH]5)cc4)c3)CC2)CC1.O=C(O)C(F)(F)F [TCMDC-133842] | 1090 nM | 2.44 µM | 0 (0: NO)
23 | CN1CCCC(CN2CCN(Cc3cccc(-c4ccc(-c5nc6cc(C(F)(F)F)ccc6[nH]5)cc4)c3)CC2)C1.O=C(O)C(F)(F)F (stereo not drawn) [TCMDC-133882] | 1300 nM | 4.07 µM | 0 (0: NO)
24 | O=C(O)C(F)(F)F.c1cc(CN2CCC(CCN3CCCCC3)CC2)cc(-c2csc(-c3nc4ccccc4[nH]3)c2)c1 [TCMDC-133919] | 2110 nM | 6.04 µM | 0 (0: NO)
25 | Cl.NC1CCN(CCc2ccc(NS(=O)(=O)c3ccc(-c4ccccc4)cc3)cc2)CC1 [TCMDC-134085] | 750 nM | 7.17 µM | 0 (0: NO)
26 | Cn1c(Nc2cc(C(C)(C)C)on2)nc2cc(Nc3ccnc(Nc4cccc(S(=O)(=O)N5CCOCC5)c4)n3)ccc21 [TCMDC-134098] | 1190 nM | 8.13 µM | 0 (0: NO)
27 | Cc1ccc(C(C(=O)Nc2ccc(N3CCNCC3)c(Cl)c2)c2ccccc2)cc1 (stereo not drawn) [TCMDC-134292] | 660 nM | 11.89 µM | 1 (1: YES)
28 | CC(C)c1ccc(CN2CCC(CNC(=O)c3cc(-c4cccc(C(F)(F)F)c4)cs3)C2)cc1.O=C(O)C(F)(F)F (stereo not drawn) [TCMDC-134435] | 1300 nM | 5.13 µM | 0 (0: NO)
29 | CC(C)c1ccc(CN2CCC(CNC(=O)c3cc(-c4ccccc4F)cs3)C2)cc1.O=C(O)C(F)(F)F (stereo not drawn) [TCMDC-134436] | 1080 nM | 9.14 µM | 0 (0: NO)
30 | CC(C)c1ccc(CN2CCC(CNC(=O)c3cc(-c4cccc(Cl)c4)cs3)C2)cc1.O=C(O)C(F)(F)F (stereo not drawn) [TCMDC-134438] | 600 nM | 6.53 µM | 1 (1: YES)
31 | COc1cccc(-c2csc(C(=O)NCC3CCN(Cc4ccc(C(C)C)cc4)C3)c2)c1.O=C(O)C(F)(F)F (stereo not drawn) [TCMDC-134439] | 1370 nM | 11.51 µM | 0 (0: NO)
32 | CC(C)c1ccc(CN2CCC(CNC(=O)c3cc(-c4ccc(N(C)C)cc4)cs3)C2)cc1.O=C(O)C(F)(F)F (stereo not drawn) [TCMDC-134440] | 710 nM | 5.85 µM | 0 (0: NO)
33 | CC(C)(C)c1ccc(CN2CCC(CNC(=O)c3cc(-c4cccc(F)c4)cs3)C2)cc1.O=C(O)C(F)(F)F (stereo not drawn) [TCMDC-134444] | 1320 nM | 6.61 µM | 0 (0: NO)
34 | CCc1ccccc1-c1csc(C(=O)NCC2CCN(Cc3ccc(C(C)(C)C)cc3)C2)c1.O=C(O)C(F)(F)F (stereo not drawn) [TCMDC-134448] | 1200 nM | 7.67 µM | 0 (0: NO)
35 | CN(C)c1ccc(-c2csc(C(=O)NCC3CCN(Cc4ccc(C(C)(C)C)cc4)C3)c2)cc1.O=C(O)C(F)(F)F (stereo not drawn) [TCMDC-134449] | 600 nM | 7.24 µM | 1 (1: YES)
36 | O=C(NCC1CCN(Cc2cccc(C(F)(F)F)c2)C1)c1cc(-c2cccc(C(F)(F)F)c2)cs1.O=C(O)C(F)(F)F (stereo not drawn) [TCMDC-134483] | 1650 nM | 16.22 µM | 0 (0: NO)
37 | O=C(NCC1CCN(Cc2cccc(C(F)(F)F)c2)C1)c1cc(-c2cccc(F)c2)cs1.O=C(O)C(F)(F)F (stereo not drawn) [TCMDC-134484] | 2260 nM | 18.87 µM | 0 (0: NO)
38 | O=C(NCC1CCN(Cc2cccc(C(F)(F)F)c2)C1)c1cc(-c2cccc(Cl)c2)cs1.O=C(O)C(F)(F)F (stereo not drawn) [TCMDC-134485] | 890 nM | 16.03 µM | 1 (1: YES)
39 | CN(C)c1ccc(-c2csc(C(=O)NCC3CCN(Cc4cccc(C(F)(F)F)c4)C3)c2)cc1.O=C(O)C(F)(F)F (stereo not drawn) [TCMDC-134486] | 1560 nM | 8.18 µM | 0 (0: NO)
40 | N#Cc1ccc(-c2ccc(C(=O)NCC3CCN(CCN4CCC(c5ccc6c(c5OCC(N)=O)CCCC6)CC4)CC3)cc2)cc1 [TCMDC-134563] | 1260 nM | 6.17 µM | 0 (0: NO)
41 | NCCCCNc1cc(-c2ccnc(Nc3cccc(Cl)c3)n2)ccn1 [TCMDC-134683] | 1460 nM | 0.67 µM | 0 (0: NO)
